Data reported in patent US10039812B2, “Therapeutic for treating clostridium difficile infection” (priority 2012, dated 2018).
Like-named read-outs stand apart in the source and are kept apart here. Where no end group is shown, it is not given here.

Experiments:
[1] = system: C. difficile strain 630Δerm; assay type: cell-based, Clostridium difficile; details: for Effect on biofilm (disassembly): 3 μM D-tyrosine, 2 mM D-methionine, 5 mM D-tryptophan, 8.5 mM D-leucine, mixture 2.5 nM each (FIG. 12)
[2] = system: C. difficile strain R20291; assay type: cell-based, Clostridium difficile
B. subtilis biofilms = details: cited from earlier work
S. aureus = details: cited from earlier work; for Biofilm disassembly: 10 μM, 100 μM and 500 μM
[3] = system: 630Δerm C. difficile biofilms; assay: DNase treatment of biofilms visualised by confocal microscopy; assay type: cell-based, Clostridium difficile; details: for Degradation of the biofilm (confocal microscopy): 15 minutes
Experimental: The untreated controls were incubated for 15 minutes with 0.15 M NaCl and washed with 1×PBS. These coverslips were mounted onto glass slides, a coverslip was applied over a 50% glycerol mounting media and these were sealed with clear nail varnish. The slides were visualised under oil immersion using a ×40 objective using a laser confocal microscope (Zeiss microscope).

[4] = system: C. difficile strain 630Δerm; assay: Inhibition of biofilm formation in TC flasks
[5] = system: C. difficile R20291 biofilm; assay: DNase, RNase and proteinase K digests of biofilm in liquid culture; details: 15 minutes
[6] = system: C. difficile 630Δerm biofilm; assay: DNase, RNase and proteinase K digests of biofilm (floc) in liquid culture; details: 15 minute treatment, room temperature
[7] = 3 μM D-tyrosine, 2 mM D-methionine, 5 mM D-tryptophan, 8.5 mM D-leucine, mixture 2.5 nM each
[8] = 10 μg/ml added prior to inoculation, 6 day incubation, static and shaking

## CC(C)C[C@@H](N)C(=O)O [D-leucine]
[1]
  Effect on biofilm formation: ineffective
  Growth of the bacteria: inhibited
  Effect on biofilm (disassembly): no significant effect
[2]
  Effect on biofilm (disassembly): no significant effect
  Effect on biofilm formation: ineffective
  Growth of the bacteria: reduced
B. subtilis biofilms; [7]
  Biofilm disassembly: disassembled

## CSCC[C@@H](N)C(=O)O [D-methionine]
[1]
  Effect on biofilm (disassembly): no significant effect
[2]
  Effect on biofilm (disassembly): no significant effect
B. subtilis biofilms; [7]
  Biofilm disassembly: disassembled

## N[C@H](Cc1ccccc1)C(=O)O [D-phenylalanine]
S. aureus
  Biofilm disassembly: disassembled

## O=C(O)[C@H]1CCCN1 [D-proline]
S. aureus
  Biofilm disassembly: disassembled

## N[C@H](Cc1c[nH]c2ccccc12)C(=O)O [D-tryptophan]
[1]
  Biofilm formation: increased the biofilm formation
  Disruption of biofilms: not disrupted
  Effect on biofilm (disassembly): no significant effect
[2]
  Biofilm formation: increased the biofilm formation
  Disruption of biofilms: not disrupted
  Effect on biofilm (disassembly): no significant effect
B. subtilis biofilms; [7]
  Biofilm disassembly: disassembled

## N[C@H](Cc1ccc(O)cc1)C(=O)O [D-tyrosine]
[1]
  Effect on biofilm (disassembly): no significant effect
[2]
  Effect on biofilm (disassembly): no significant effect
B. subtilis biofilms; [7]
  Biofilm disassembly: disassembled
S. aureus
  Biofilm disassembly: disassembled

## NCCCNCCCN [norspermidine]
[1]
  Biofilm level: significantly reduced
  Disassembly of biofilm performed in tissue culture flasks: not disrupted
  Disassembly of biofilms: does not disassemble biofilms
  Viability: slight decrease in viability
[2]
  Biofilm formation on addition to biofilm cultures: enhances the biofilm formation
  Disassembly of biofilms: does not disassemble biofilms
B. subtilis biofilms; norspermidine at 100, 50 and 25 μM
  Biofilm disassembly: disassemble biofilms

## DNase
[3]; 1 ug DNase
  Degradation of the biofilm (confocal microscopy): incomplete degradation
[3]; 10 ug DNase
  Degradation of the biofilm (confocal microscopy): incomplete degradation
[3]; DNase for 15 minutes, BHIS and YP media, compared to untreated controls
  Degradation of the biofilms (confocal microscopy): biofilms were absent
[4]; [8]
  Bacterial growth (turbidity of media): turbid, indicating bacterial growth
  Biofilm formation (flocs or aggregates): no flocs or aggregates were observed
[4]; 10 mg/ml in the growth media, incubated statically for six days (FIG. 9)
  Formation of biofilm in liquid media: inhibits the formation of biofilm
[5]; 1 mg/ml
  Degradation of the biofilm: degradation of the biofilm observed
[5]
  Degradation of the biofilm: degradation of the biofilm observed
[6]; 100 ug/ml
  Degradation of the biofilm (floc produced in static culture): Degradation of the biofilm was observed
[6]; 1 mg/ml
  Degradation of the biofilm (floc produced in static culture): Degradation of the biofilm was observed

## Human beta-defensin 3: cationic peptide shown to inhibit biofilm formation in S. aureus (GIINTLQKYYCRVRGGRCAVLSCLPKEEQIGKCSTRGRKCCRRKK; ends and bridges not checked; cysteine pairing not given here; UniProt P81534 23-67, looked up)
S. aureus
  Inhibition of biofilm formation: inhibit biofilm formation
